Assay results reported in patent EP0103030A1, “Polycyclic fused pyrazole compounds, useful as anti-inflammatory agents, and preparation thereof” (STERLING DRUG INC., priority 1982, dated 1984).

Columns and labels:
Assay type in all cases: in vivo
[1] = test system: Mature male rats were bilaterally adrenalectomized; assay: Glycogenic activity (liver glycogen deposition test)
Description: Glycogenic Activity: Mature male rats were bilaterally adrenalectomized 5 days prior to the test. These rats were medicated orally with the test compound for 5 days. Seven hours after the last medication, the rats (which have been fasted overnight) were anesthetized with sodium pentobarbital and a portion of one lobe of the liver was removed and frozen on dry ice for subsequent glycogen determination.

Male rats = assay: Anti-inflammatory activity (a-tocopherol pouch test)
Method: A rapid subcutaneous injection of 25 mL of air was made between the scapulae of each rat. […] The test compound was administered in daily oral doses for 7 days beginning on the day of pouch formation. The compound to be tested was suspended in 1% gum tragacanth. Twenty-four hours after the last medication, the pouches were dissected free, and the fluid volume was measured. The inhibition of liquid exudate is a measure of the anti=inflammatory activity.

Mature female rats = assay: Endocrine profile (thymus, adrenal and body weight after 2 weeks oral medication); settings: compared with the controls
Method: The test procedures used to determine the biological activities of the compounds of the invention were carried out as follows: • Endocrine Profile: Mature female rats with an average body weight of 202 g and a body weight range of 15 g or less were medicated orally with test compound for 2 weeks. The test compound was prepared as a solution or suspension in 1% gum tragacanth or 0.75% methyl cellulose. On the day following the last medication, the rats were killed and the thymus and adrenal of each rat were removed, cleaned, and weighed. Body weights and food consumptions were also recorded.

SMILES | liver glycogen deposition value ([1]; dose level of 9 mg/kg/day x 5, oral, adrenalectomized male rats, vehicle 2.2 + 0.04 mg/g) | glucocorticoid activity by the liver glycogen deposition test ([1]; oral, rats, general statement) | ED50 (Male rats; Rattus norvegicus, 168 h, daily oral doses for 7 days, male rats, inhibition of liquid exudate) [mg/kg] | anti-inflammatory activity by the a-tocopherol pouch test (Male rats; rats, general statement) | reduction in adrenal weight (Mature female rats; dose level of 1 mg/kg) [%] | reduction in body weight gain (Mature female rats; dose level of 1 mg/kg) [%] | reduction in thymus weight (Mature female rats; dose level of 1 mg/kg) [%] | activity in the a-tocopherol pouch test (Male rats; dose level of 100 mg/kg, daily oral doses for 7 days, male rats) | reduction in adrenal weight (Mature female rats; dose level of 5 mg/kg) [%] | reduction in body weight gain (Mature female rats; dose level of 5 mg/kg) [%] | reduction in thymus weight (Mature female rats; dose level of 5 mg/kg) [%]
CC12Cc3cnn(-c4ccc(F)cc4)c3C=C1CCC1OC3(CC=C12)C(=O)c1ccccc1C3=O (centres unmarked) [Compound I (R = F), 8'-(4-Fluorophenyl)-2',3',5',6',ll',lla'-hexahydro-lla'-methylspiro-2H-indene[2,3']-3H-pyrazolo[4",5":7',6']-naphtho-[2,1-b] pyran-1,3-dione] | 21.8 + 4.4 mg/g of tissue | oral glucocorticoid activity | 10 | anti-inflammatory activity | 56 | 129 | 61 | – | – | – | –
CC12Cc3cnn(-c4ccccc4)c3C=C1CCC1OC3(CC=C12)C(=O)c1ccccc1C3=O (centres unmarked) [Compound I (R = H), 2',3',5',6',11',11a'-Hexahydro-11a'-methyl-8'-phenylspiro 2H-indene[2,3']-3H-pyrazolo[4",5":7',6']naphtho[2,1-b] pyran-1,3-dione] | – | – | – | – | – | – | – | inactive | 38 | 62 | 51
